Assay results taken from patent US12285407B2, “Bis-indolylmethane derivatives and uses thereof” (The University of The West Indies, priority 2018, dated 2025).
Values after ≈ are worked out from the molar mass of the structure shown. Read-outs that look alike come from different tables or passages of the source.

Columns and labels:
[1] = system: Bacillus cereus; assay: Adjuvant broth microdilution (antibiotic MIC with SP-BIM at 50 μg/mL); assay type: cell-based; conditions: antibiotic alone, Table 9
[2] = system: Klebsiella pneumoniae; assay: as above; assay type: cell-based; conditions: Klebsiella pneumonia; antibiotic alone, no SP-BIM
[3] = system: Pseudomonas aeruginosa; assay: Rescue concentrations of SP-BIM that reactivate antibiotic; assay type: cell-based; conditions: Pseudomonas aeruginosa; P. aeruginosa; agent alone; read-out: MIC (single agent)
[4] = system: Enterobacter cloacae; assay: Adjuvant broth microdilution (antibiotic MIC with SP-BIM at 50 μg/mL); assay type: cell-based; conditions: antibiotic alone
[5] = system: Escherichia coli O157:H7; assay type: cell-based; conditions: antibiotic alone, no SP-BIM
[6] = system: MRSA; assay: Adjuvant broth microdilution (antibiotic MIC with SP-BIM at 50 μg/mL); assay type: cell-based, Staphylococcus aureus; conditions: antibiotic alone, Table 8 (series SP-BIMs 21-29)
[7] = system: Pseudomonas aeruginosa; assay: as above; assay type: cell-based; conditions: antibiotic alone
[8] = system: Enterococcus faecalis; assay: as above; assay type: cell-based; conditions: antibiotic alone
[9] = system: clinical strains of MRSA; assay: Kirby Bauer disc diffusion susceptibility profile; assay type: cell-based, Staphylococcus aureus; conditions: for Zone of clearance: 35° C., 24 hours, average n=3; for Interpretive standard (resistant/susceptible): zones vs EUCAST breakpoints (Table 30)
[10] = system: Streptococcus pyogenes ATCC 19615; assay: Broth microdilution MIC of SP-BIMs; assay type: cell-based; conditions: ATCC19615, SP-BIM alone, read-out: MIC Streptococcus pyogenes ATCC 19615
[11] = system: Corynebacterium diphtheriae ATCC 27010; assay: Broth microdilution MIC of SP-BIMs; assay type: cell-based; conditions: ATCC27010, SP-BIM alone, read-out: MIC Corynebacterium diphtheriae ATCC 27010
[12] = system: Bacillus cereus ATCC 14579; assay: Broth microdilution MIC of SP-BIMs; assay type: cell-based; conditions: ATCC14579, SP-BIM alone, read-out: MIC Bacillus cereus ATCC 14579
[13] = system: Escherichia coli ATCC 35218; assay: Broth microdilution MIC of SP-BIMs; assay type: cell-based; conditions: ATCC35218, SP-BIM alone, read-out: MIC Escherichia coli ATCC 35218
[14] = system: panel of ATCC reference pathogen strains; assay: Broth microdilution MIC of SP-BIMs, panel summary in text; assay type: cell-based
Excerpt: Reference microorganisms used in this study included: Bacillus cereus (American Type Culture Collection (ATCC) No. 14579), Streptococcus pyogenes (ATCC No. 19615), Staphylococcus aureus (ATCC No. 12600), Enterococcus faecium (ATCC No. 19434), Corynebacterium diphtheriae (ATCC No. 27010), Escherichia coli (ATCC No. 35218), Salmonella typhimurium (ATCC No. 14028), Pseudomonas aeruginosa (ATCC No. 27853), Klebsiella pneumoniae (ATCC No. 49472), and Candida albicans (ATCC No. 22972).
Prior to each experiment, cultures were streaked onto clean BHI agar plates and incubated at 35° C. for 24 hours. Colonies of the respective cultures were selected and inoculated in phosphate buffer saline (pH 7.5) to a 0.5 McFarland turbidity standard (equivalent to 10^8 CFU mL^−1). […]
To assess the antibiotic properties of the library of SP-BIMs, the broth microdilution assay was performed in 96-well microplates according to the Clinical and Laboratory Standards Institute 2014 Guidelines (CLSI 2014). […] The MIC was recorded as the well with the lowest concentration of test compound where no color change was observed.
The antimicrobial activity of the library of substituted [bis(indol-3yl)]methanes was assessed against a panel of ATCC reference pathogen strains of clinical relevance. […]

[15] = system: Streptococcus pneumoniae; assay: Adjuvant broth microdilution (antibiotic MIC with SP-BIM at 50 μg/mL); assay type: cell-based; conditions: Streptococcus pneumoniae, Streptococcus pneumonia, SP-BIM at 50 μg mL^−1
[16] = system: Pseudomonas aeruginosa ATCC 27853; assay: Broth microdilution MIC of SP-BIMs; assay type: cell-based; conditions: ATCC27853, SP-BIM alone, read-out: MIC Pseudomonas aeruginosa ATCC 27853
[17] = system: Salmonella typhimurium ATCC 14028; assay: Broth microdilution MIC of SP-BIMs; assay type: cell-based; conditions: Salmonella enterica, read-out: MIC Salmonella tvpkimurium ATCC 14028
Method in brief: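 S. typhimurium at ~10^6 CFU mL^−1 in cation-adjusted Mueller Hinton broth was exposed to twofold compound dilutions from 250 to 0.02 μg mL^−1 at 35° C. for 18 hours. Resazurin was then added, with 1 hour of shaking. MIC was the lowest concentration showing no blue-to-pink colour change.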

[18] = system: Klebsiella pneumoniae ATCC 49472; assay: Broth microdilution MIC of SP-BIMs; assay type: cell-based; conditions: ATCC49472, SP-BIM alone, read-out: MIC Klebisella pneumoniae ATCC 49472
[19] = system: Enterococcus faecium ATCC 19434; assay: Broth microdilution MIC of SP-BIMs; assay type: cell-based; conditions: ATCC19434, SP-BIM alone, read-out: MIC Enterococcus faecium ATCC 19434
[20] = system: Candida albicans ATCC 22972; assay: Broth microdilution MIC of SP-BIMs; assay type: cell-based; conditions: ATCC22972, SP-BIM alone, read-out: MIC Candida albicans ATCC 22972
[21] = system: Staphylococcus aureus ATCC 12600; assay: Broth microdilution MIC of SP-BIMs; assay type: cell-based; conditions: ATCC12600, SP-BIM alone, read-out: MIC Staphylococcus aureus ATCC 12600
[22] = read-out: MIC of Kanamvcin with SP-BIM
[23] = read-out: MIC of Vancomvcin with SP-BIM

In the case of `O=C(N[C@H](CO)[C@H](O)c1ccc([N+](=O)[O-])cc1)C(Cl)Cl` [Chloramphenicol, chloramphenicol], the “MIC of antibiotic, No Compound” value [1] is reported as 4 µg/mL, the “MIC of antibiotic, No Compound” value [2] is reported as >250 µg/mL and the MIC [3] is reported as 250 µg/mL (≈ 774 µM). The “MIC of antibiotic, No Compound” value [4] was 16 µg/mL, the “MIC of antibiotic, No Compound” value [5] was 8 µg/mL and the “MIC of antibiotic, No Compound” value [6] was <0.5 µg/mL. The “MIC of antibiotic, No Compound” value [7] was 250 µg/mL, the “MIC of antibiotic, No Compound” value [8] was 250 µg/mL and the Zone of clearance ([9]; MRSA strain 1594) was 18.5 mm. The “Interpretive standard (resistant/susceptible)” value ([9]; MRSA strain 1594) was “S”, the Zone of clearance ([9]; MRSA strain 1621) was 24.5 mm and the “Interpretive standard (resistant/susceptible)” value ([9]; MRSA strain 1621) was “S”. The Zone of clearance ([9]; MRSA strain 5455) was 22.0 mm, the “Interpretive standard (resistant/susceptible)” value ([9]; MRSA strain 5455) was “S” and the Zone of clearance ([9]; MRSA strain 5872) was 20.5 mm. The “Interpretive standard (resistant/susceptible)” value ([9]; MRSA strain 5872) was “S”, the Zone of clearance ([9]; MRSA strain 7153) was 18.0 mm and the “Interpretive standard (resistant/susceptible)” value ([9]; MRSA strain 7153) was “S”. For the same compound, the Zone of clearance ([9]; MRSA strain 7172) was 19.5 mm, the “Interpretive standard (resistant/susceptible)” value ([9]; MRSA strain 7172) was “S” and the Zone of clearance ([9]; MRSA strain 7698) was 16.5 mm. For the same compound, the “Interpretive standard (resistant/susceptible)” value ([9]; MRSA strain 7698) was “S”, the Zone of clearance ([9]; MRSA strain 10132) was 21.5 mm and the “Interpretive standard (resistant/susceptible)” value ([9]; MRSA strain 10132) was “S”.

`c1ccc(C(c2c[nH]c3ccccc23)c2c[nH]c3ccccc23)cc1` [SP-BIM 1, bis(indol-3-yl)-phenylmethane] gave an MIC [10] of 83 µg/mL, an MIC [11] of 125 µg/mL and an MIC [12] of 83 µg/mL. The MIC [13] was > 250 µg/mL, the “antibacterial activity” value [14] was “displayed antibacterial activity, and only against Gram-positive bacteria” and the MIC [15, 22] was 125 µg/mL. For the same compound, the MIC [15, 23] was 1 µg/mL, the MIC [16] was 250 µg/mL and the MIC [17] was 250 µg/mL. For the same compound, the MIC [18] was > 250 µg/mL, the MIC [19] was 52 µg/mL and the MIC [20] was 250 µg/mL. For the same compound, the MIC [21] was > 250 µg/mL.

Compound `c1ccc2c(C(c3ncc[nH]3)c3c[nH]c4ccccc34)c[nH]c2c1` [SP-BIM 4, [bis(indol-3-yl)imidazol-2-yl]methane] has an MIC [10] of 104 µg/mL, an MIC [11] of 166 µg/mL and an MIC [12] of 125 µg/mL. The MIC [13] was > 250 µg/mL, the “antibacterial activity” value [14] was “displayed antibacterial activity, and only against Gram-positive bacteria” and the MIC [15, 22] was 125 µg/mL. It also gave an MIC [15, 23] of 1 µg/mL, an MIC [16] of 250 µg/mL and an MIC [17] of 250 µg/mL. The MIC [18] was > 250 µg/mL, the MIC [19] was 104 µg/mL and the MIC [20] was 250 µg/mL. The MIC [21] was 166 µg/mL.
